Experimental data published in PMC12257544, “Fluorescent Isostere (Fluostere) of the Carboxylate: Design of hDHODH Fluorescent Inhibitors as Proof of Concept” (Journal of Medicinal Chemistry, 2025).
“And” between values parts separate entries of the source, which are not always exact repeats. Identical values can stand only once.

Assays:
[1] = tested on: THP1 cells; experiment: Annexin V apoptosis assay; assay type: cell-based, human
Description: After 3 days of culture, the apoptotic assay was performed using the Annexin V-FITC Kit (Miltenyi Biotec, Italy), according to the manufacturer's instructions. The apoptotic cells were acquired on […] and analyzed using Kaluza software version 2.1 (Beckman Coulter, Fullerton, CA).

[2] = tested on: THP-1 cells; experiment: Co-localization competition assay with Bay2402234 (Manders coefficient); assay type: cell-based, human; settings: 10 μM each, 3 h, Manders coefficient, Welch's t test p = 0.0024
Description: Colocalization between hDHODH inhibitors and mitochondria was quantified using Manders coefficient (Figure D).
THP-1 cells were incubated for 3 h with hDHODHi 11a and Bay240223410 at 10 μM, either alone or in combination. After incubation, the cells were washed and stained with Red-MitoTracker CMXRos (Thermo Fisher, Carlsbad, CA, USA) at a concentration of 100 nM for 30 min at 37 °C. Cells were imaged with a Leica TCS SP8 confocal system (Leica Microsystems) equipped with 4 excitation lasers (405 Diode, Argon, DPSS561, HeNe633). Images were acquired with a HCX PL APO 63×/1.4 NA oil-immersion objective with a resolution of 81 nm × 81 nm and were processed and analyzed with ImageJ software (Rasband, W.S., U.S. National Institutes of Health, Bethesda, […]). In particular, colocalization was analyzed with JACoP plugin and Manders’ coefficient was calculated

[3] = tested on: A549 cells; experiment: Cell viability assay (CellTiter-Glo); assay type: cell-based; settings: Homo sapiens, A549, 72 h; 3 days of culture; read-out: Viability EC50 A549 (C.L. 95 %)
Description: (§1) After 3 days of culture, the percentage of live cells was determined using the CellTiter-Glo Luminescent assay (Promega, Milan, Italy), following the manufacturer’s instructions.

[4] = tested on: K562 cells; experiment: Cell viability assay (CellTiter-Glo); assay type: cell-based; settings: Homo sapiens, K562, 72 h; 3 days of culture; read-out: Viability EC50 K562 (C.L. 95 %)
Description: as §1

[5] = Photophysical characterization (absorption, emission, QY, lifetime); assay type: physicochemical
Description: (§2) UV–Vis absorption spectra were recorded on a Cary60 spectrometer. Photoemission spectra, luminescence lifetimes, and quantum yields were acquired with a HORIBA Jobin Yvon IBH Fluorolog-TCSPC spectrofluorometer equipped with a Quanta-φ integrating sphere. […] Emission-decay data were collected in 2048 channels to 10000 counts in the peak channel. IRF was measures using colloidal silica suspension in H2O to scatter light. Data were analyzed with the software DAS6 (TCSPC decay-analysis software) using a nonlinear least-squares method to fit of the decay to a sum of exponentials. The value of χ^2, residuals and the autocorrelation function (Durbin-Watson parameter) were used to determine the quality of the fit. For measurements in the presence of hDHODH, 11a was incubated, at 1 μM concentration in TRIS Buffer 0.1 mM (pH 8) with 0.1% DMSO, alone or with different concentrations of recombinant protein ranging from 31.5 to 504 nM concentration. After 5 min incubation UV–Vis absorption spectra were recorded on a Cary60 spectrophotometer and photoemission spectra were acquired with a HORIBA Jobin Yvon IBH Fluorolog-TCSPC spectrofluorometer with excitation λ of 366 nm and maximum of emission at 500 nm; a.u. data were analyzed with GraphPad Prism using One Site – Specific Binding equation.

[6] = molecular target: hDHODH enzyme GST-tagged (Homo sapiens, UniProt Q02127); experiment: hDHODH inhibition assay (DCIP reduction)
Description: The enzyme (around 60 nM) was preincubated for 5 min at 37 °C in Tris-buffer solution (pH 8.0) with coenzyme Q10 (100 μM), tested compounds at different concentrations (final DMSO concentration 0.1% v/v), and DCIP (50 μM). The reaction was initiated by addition of DHO (500 μM) and the reduction was monitored at λ = 650 nm. […] Values are means ± SE of three independent experiments.

[7] = molecular target: hDHODH (Homo sapiens, UniProt Q02127); experiment: Fluorescence emission of the compound in the presence of recombinant hDHODH; assay type: binding; settings: compound 1 μM, hDHODH 31.5 to 504 nM, TRIS pH 8
Description: In particular, we observed an increase in fluorescence intensity in correlation with the growing amount of protein, as shown in Figure .
as §2, with “For measurements in the presence of hDHODH, 11a was incubated, at 1 μM concentration in TRIS Buffer 0.1 mM (pH 8) with 0.1% DMSO, alone or with different concentrations of recombinant protein ranging from 31.5 to 504 nM concentration.” left out

[8] = Cytotoxicity assay (CellTiter-Glo); assay type: cell-based; settings: human, MRC-5 cells; 72 h incubation; read-out: MRC-5 CC50 (C.L. 95 %)
Description: After 72 h of incubation, the number of viable cells was determined using the CellTiter-Glo Luminescent assay (Promega, Milan, Italy). The cytotoxicity of the tested compounds was expressed as cytotoxic concentration (CC50).

[9] = tested on: unrelated GST-conjugated-protein; experiment: Fluorescence control with an unrelated GST-conjugated protein; assay type: binding; settings: fixed amount of compound, increasing protein concentration
Description: Because the isolated hDHODH used for the previous measurements, and in inhibition enzymatic assay, is the GST-tagged protein, we decided to confirm that the observed fluorescence enhancement resulted from specific binding of inhibitor 11a to the target protein and not from nonspecific interactions with the GST portion.
Apoptosis test rescue with uridine:
Figure S4. A) Analysis of the apoptotic rate induced by compound 11a, on THP-1 cell line (n = 3) with or without exogenous uridine at 100 µM. Compounds were utilized at 1 µM; apoptotic was evaluated after 3 days of treatment. DMSO: dimethyl sulfoxide. Cpd: compound. Ur: uridine. Statistical significance: Student’s t test: **p<0.01. B) Representative Annexin V-FITC/PI flow cytometry dot plots of THP-1 cells after 3 days of treatment in presence of vehicle (left), compound 11a (middle), compound 11a and uridine 100 µM. Data are representative of 3 independent experiments.
Figure S5. Fluorescence-based analysis of the potential contribution of GST-tag to the emission restoration of compound 11a. […]
increasing concentration versus a fixed amount of compound 11a. […]
show protein-dependent fluorescence restoration. […]

hDHODH enzyme GST-tagged, sequence (Q02127 whole entry): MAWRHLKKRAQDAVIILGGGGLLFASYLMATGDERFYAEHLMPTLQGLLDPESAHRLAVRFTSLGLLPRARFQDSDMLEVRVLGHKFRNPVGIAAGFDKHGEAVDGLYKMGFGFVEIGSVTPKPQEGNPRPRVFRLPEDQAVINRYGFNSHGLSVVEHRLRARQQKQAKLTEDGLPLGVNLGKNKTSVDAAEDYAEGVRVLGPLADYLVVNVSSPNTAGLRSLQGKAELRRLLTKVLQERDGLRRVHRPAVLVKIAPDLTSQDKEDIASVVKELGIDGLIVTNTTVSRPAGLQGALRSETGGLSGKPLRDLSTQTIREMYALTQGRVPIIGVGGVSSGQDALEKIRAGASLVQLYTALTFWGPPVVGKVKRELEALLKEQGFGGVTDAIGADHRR
hDHODH, sequence (Q02127 whole entry): as above

Q: What does the source list for `Oc1nn2ccccc2c1/C=C/c1c(F)c(F)c(-c2ccccc2)c(F)c1F` [Compound 11a, (E)-3-(2-(2,3,5,6-Tetrafluoro-[1,1’-biphenyl]-4-yl)vinyl)pyrazolo[1,5-a]pyridin-2-ol]?
A: EC50 ([1]; Homo sapiens, THP-1, 72 h, 3 days of culture, Annexin V-FITC, read-out: Apoptosis EC50 THP1 (C.L. 95 %)): 693 nM; antileukemic activity relative to MEDS433 ([1]; lower than MEDS433, THP1 apoptosis): ~10 fold; pro-apoptotic activity after adding exogenous uridine ([1]; uridine 100 μM, compound 1 µM, THP-1, 3 days): completely reversed; colocalization signal with the mitochondria in the presence of Bay2402234 [2]: decreased slightly but statistically significantly; EC50 [3]: 423 nM; EC50 [4]: 114 nM; emission in PBS solution ([5]; PBS, polar protic solvent): completely quenched; emission in TRIS buffer ([5]; TRIS buffer (pH 8), conditions of the enzymatic assay, no protein): absence of emission; Lifetime ([5]; in ACN): <1 ns; QY (luminescence quantum yield) ([5]; in ACN): 0.12; Stokes shift ([5]; in ACN): 4174 cm^–1; λabs ([5]; in ACN): 442 nm; λem ([5]; in ACN): 535 nm and 542 nm; IC50 [6]: 170 nM; fluorescence in the presence of the recombinant protein [7]: restoration of fluorescence; CC50 at 72 h [8]: 7 µM; fluorescence in the presence of an unrelated GST-conjugated protein [9]: no restoration of fluorescence
